Experimental data published in publication PMC5736782, “The Differential Absorption of a Series of P-Glycoprotein Substrates in Isolated Perfused Lungs from Mdr1a/1b Genetic Knockout Mice can be Attributed to Distinct Physico-Chemical Properties: an Insight into Predicting Transporter-Mediated, Pulmonary Specific Disposition” (Pharmaceutical Research, 2017).
Read-outs that look alike come from different tables or passages of the source.

Tests used:
[1] = test system: P-glycoprotein (Mdr1a/Mdr1b) in isolated perfused mouse lung; assay: Isolated perfused mouse lung (IPML) airway-to-perfusate absorption, Mdr1a/1b (+/+) vs (−/−)
Procedure: The atria and the lower half of the heart were cut to allow the free flow of perfusate. The lungs were removed and suspended vertically in a custom water-jacketed glass thorax (Radleys, Essex, UK) maintained at 37°C.
Following dosing of compound into the IPML airways serial samples (250 μL) were collected for bioanalysis from the 10 mL recirculating perfusate reservoir. Each sample collected from the reservoir was replaced with an equal volume of fresh warmed, oxygenated perfusate. Upon termination of the experiment the dose solutions, apparatus washings and perfusate samples were collected for mass balance calculations enabling determination of the actual total dose delivered to the lungs.
Radioactive compounds were directly analysed by liquid scintillation counting. Volumes of 50 μL perfusate samples were mixed with 3 mL of Scintisafe 3 Liquid Scintillation Fluid (Fisher, UK) and transferred to vials for scintillation counting using a TriCarb 2900TR (Packard Bioscience, USA).
After accounting for the mass of compound removed at each sample point, plots of the cumulative ‘%deposited dose absorbed’ versus ‘time’ were generated and subject to nonlinear regression analysis according to a first-order absorption one-compartment accumulating model (Eq. 1) to generate estimates for the extent (F) and rate (Ka) of absorption from the IPML airways to the recirculating perfusate.
The data was also subject to standard non-compartmental analysis, specifically Area Under Curve (AUC0–30 min) of ‘%deposited dose absorbed’ versus ‘time’ (units: %Dose.min) and reflecting for the exclusively accumulating perfusate ‘compartment’ the exposure arising from the IPML absorption process alone.

mouse Bcrp = target: T1, mouse Bcrp (Mus musculus, UniProt Q7TMS5); assay: Gentest ABC transporter membrane ATPase assay; type: biochemical; conditions: ATPase; 0 indicates no enzyme turnover
T1 construct: purchased Corning (Gentest), Germany
T1 sequence (Q7TMS5 1-657): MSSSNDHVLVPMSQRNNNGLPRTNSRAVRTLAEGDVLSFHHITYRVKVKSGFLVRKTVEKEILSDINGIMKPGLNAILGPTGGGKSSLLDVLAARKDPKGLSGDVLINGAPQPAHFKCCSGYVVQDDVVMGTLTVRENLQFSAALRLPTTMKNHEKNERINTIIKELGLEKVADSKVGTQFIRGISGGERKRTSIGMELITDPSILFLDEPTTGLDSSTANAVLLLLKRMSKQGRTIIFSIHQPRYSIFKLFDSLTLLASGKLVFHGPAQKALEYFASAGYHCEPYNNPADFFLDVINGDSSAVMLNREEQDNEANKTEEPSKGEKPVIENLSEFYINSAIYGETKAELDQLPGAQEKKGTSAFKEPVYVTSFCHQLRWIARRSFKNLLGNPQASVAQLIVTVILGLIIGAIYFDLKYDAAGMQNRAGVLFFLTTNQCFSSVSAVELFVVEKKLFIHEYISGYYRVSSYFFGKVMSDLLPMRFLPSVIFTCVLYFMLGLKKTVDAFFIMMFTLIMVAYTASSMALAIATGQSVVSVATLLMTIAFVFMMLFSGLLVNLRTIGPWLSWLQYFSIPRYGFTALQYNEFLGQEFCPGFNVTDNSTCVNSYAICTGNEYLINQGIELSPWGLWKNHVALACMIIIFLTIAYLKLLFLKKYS
Source text: (§1) The Gentest ATPase assay (Corning, Germany) was used to investigate the binding kinetics of the panel of P-gp substrates against membranes constituted to display human MDR1, mouse Mdr1a, mouse Mdr1b and mouse Bcrp. The assays measure the accumulation of inorganic phosphate (absorbance at 800 nm) produced in the breakdown of ATP to ADP. […] The assays were used in accordance with the manufacturer’s protocol to calculate (GraphPad Prism) the Michaelis-Menten parameters Km and VMAX. For the assay test compounds were serially diluted to produce an assay concentration range of 0–300 μM with the kinetics of ATP turnover examined over 30 min at 37°C.

[2] = Immobilised artificial membrane (IAM) chromatography; type: physicochemical; conditions: extrapolated to 100% water; mean of four experiments
Procedure: IAM chromatography provided an experimental measure of substrate membrane affinity and phospholipid interaction. The IAM column (Regis Technologies Inc., Hichrom, Reading, UK; IAM.PC.DD2 10 cm x 4.6 mm ID column) was run under isocratic eluting conditions with the retention of all compounds determined under three mobile phase conditions: 10%, 20% and 30% acetonitrile in water, and from which the theoretical retention time in 100% water was calculated by linear regression. LogK^IAM values were calculated according to Eq. 2:2 LogK^IAM=LogTr−T0/T0
where Tr and T0 are respectively the retention times of the substrate in 100% water and of the unretained compound, i.e. eluting within the solvent front of 75 s in all experiments.

[3] = Multi-lamellar liposome vesicle (MLV) partitioning; type: physicochemical; conditions: (C0−CS)/C0, 1 μg/mL, 4 h, 37°C, PBS pH 7.4
Procedure: MLVs were formed as previously described ([20]). Briefly, solutions of 8 mg phosphatidylcholine and 2 mg phosphatidylglycerol in 10 mL chloroform were completely dried to a lipid film (rotation under vacuum).
These preparations were then incubated at 37°C for 4 h under shaking conditions to allow equilibration of compound between the lipid and aqueous fractions. The MLVs were then pelleted and 100 μL of supernatant removed for analysis by radiometric or LC-MS/MS methods as described above. Partitioning into the MLVs was determined according to Eq. 3:3 MLVpartitioning=C0−CS/C0
where C0 is the initial compound concentration (1 μg/mL) and CS is the compound concentration present in the aqueous supernatant at the end of 4 h incubation.

human MDR1 = human MDR1 (Homo sapiens, UniProt P08183); assay: Gentest ABC transporter membrane ATPase assay; conditions: ATPase, 0–300 μM, 30 min, 37°C
Sequence of human MDR1 (P08183 whole entry): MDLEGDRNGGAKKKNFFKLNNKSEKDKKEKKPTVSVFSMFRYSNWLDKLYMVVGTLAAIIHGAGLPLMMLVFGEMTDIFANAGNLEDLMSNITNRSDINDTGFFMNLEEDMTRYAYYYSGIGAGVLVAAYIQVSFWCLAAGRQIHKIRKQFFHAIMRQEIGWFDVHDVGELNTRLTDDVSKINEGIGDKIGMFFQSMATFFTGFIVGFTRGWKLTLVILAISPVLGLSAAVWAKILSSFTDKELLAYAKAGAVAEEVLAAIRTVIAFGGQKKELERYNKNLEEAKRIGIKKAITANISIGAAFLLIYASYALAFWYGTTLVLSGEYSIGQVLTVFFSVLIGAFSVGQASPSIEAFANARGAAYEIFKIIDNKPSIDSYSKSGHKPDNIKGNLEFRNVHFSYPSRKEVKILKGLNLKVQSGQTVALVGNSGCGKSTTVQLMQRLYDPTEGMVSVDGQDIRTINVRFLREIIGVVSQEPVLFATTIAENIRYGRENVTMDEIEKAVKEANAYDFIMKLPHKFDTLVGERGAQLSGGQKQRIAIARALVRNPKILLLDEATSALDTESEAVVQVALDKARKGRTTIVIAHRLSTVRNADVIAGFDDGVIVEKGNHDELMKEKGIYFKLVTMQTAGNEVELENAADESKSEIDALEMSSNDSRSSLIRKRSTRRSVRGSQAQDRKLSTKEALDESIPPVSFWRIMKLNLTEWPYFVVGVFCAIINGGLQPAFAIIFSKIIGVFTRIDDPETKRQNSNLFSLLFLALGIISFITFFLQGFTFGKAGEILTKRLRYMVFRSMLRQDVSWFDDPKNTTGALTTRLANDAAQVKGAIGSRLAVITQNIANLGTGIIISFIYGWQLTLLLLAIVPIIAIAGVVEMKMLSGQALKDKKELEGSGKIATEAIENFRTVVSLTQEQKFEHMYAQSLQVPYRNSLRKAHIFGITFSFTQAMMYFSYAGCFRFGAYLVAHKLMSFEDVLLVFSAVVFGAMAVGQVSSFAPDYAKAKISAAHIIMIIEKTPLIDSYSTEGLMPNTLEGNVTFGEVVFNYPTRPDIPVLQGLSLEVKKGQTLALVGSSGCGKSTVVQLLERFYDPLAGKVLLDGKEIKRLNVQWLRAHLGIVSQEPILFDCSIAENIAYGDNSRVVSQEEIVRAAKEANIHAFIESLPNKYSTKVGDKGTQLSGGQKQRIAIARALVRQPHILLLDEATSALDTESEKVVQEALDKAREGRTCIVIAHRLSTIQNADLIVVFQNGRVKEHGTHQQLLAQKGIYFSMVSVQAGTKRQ
Source text: as §1

human MDR1 (P-gp) = human MDR1 (P-gp) (Homo sapiens, UniProt P08183); assay: Gentest ABC transporter membrane ATPase assay; conditions: human
Sequence of human MDR1 (P-gp) (P08183 whole entry): as above
Source text: as §1

mouse Mdr1a = mouse Mdr1a (Mus musculus, UniProt P21447); assay: Gentest ABC transporter membrane ATPase assay; conditions: 0–300 μM, 30 min, 37°C
Sequence of mouse Mdr1a (P21447 whole entry): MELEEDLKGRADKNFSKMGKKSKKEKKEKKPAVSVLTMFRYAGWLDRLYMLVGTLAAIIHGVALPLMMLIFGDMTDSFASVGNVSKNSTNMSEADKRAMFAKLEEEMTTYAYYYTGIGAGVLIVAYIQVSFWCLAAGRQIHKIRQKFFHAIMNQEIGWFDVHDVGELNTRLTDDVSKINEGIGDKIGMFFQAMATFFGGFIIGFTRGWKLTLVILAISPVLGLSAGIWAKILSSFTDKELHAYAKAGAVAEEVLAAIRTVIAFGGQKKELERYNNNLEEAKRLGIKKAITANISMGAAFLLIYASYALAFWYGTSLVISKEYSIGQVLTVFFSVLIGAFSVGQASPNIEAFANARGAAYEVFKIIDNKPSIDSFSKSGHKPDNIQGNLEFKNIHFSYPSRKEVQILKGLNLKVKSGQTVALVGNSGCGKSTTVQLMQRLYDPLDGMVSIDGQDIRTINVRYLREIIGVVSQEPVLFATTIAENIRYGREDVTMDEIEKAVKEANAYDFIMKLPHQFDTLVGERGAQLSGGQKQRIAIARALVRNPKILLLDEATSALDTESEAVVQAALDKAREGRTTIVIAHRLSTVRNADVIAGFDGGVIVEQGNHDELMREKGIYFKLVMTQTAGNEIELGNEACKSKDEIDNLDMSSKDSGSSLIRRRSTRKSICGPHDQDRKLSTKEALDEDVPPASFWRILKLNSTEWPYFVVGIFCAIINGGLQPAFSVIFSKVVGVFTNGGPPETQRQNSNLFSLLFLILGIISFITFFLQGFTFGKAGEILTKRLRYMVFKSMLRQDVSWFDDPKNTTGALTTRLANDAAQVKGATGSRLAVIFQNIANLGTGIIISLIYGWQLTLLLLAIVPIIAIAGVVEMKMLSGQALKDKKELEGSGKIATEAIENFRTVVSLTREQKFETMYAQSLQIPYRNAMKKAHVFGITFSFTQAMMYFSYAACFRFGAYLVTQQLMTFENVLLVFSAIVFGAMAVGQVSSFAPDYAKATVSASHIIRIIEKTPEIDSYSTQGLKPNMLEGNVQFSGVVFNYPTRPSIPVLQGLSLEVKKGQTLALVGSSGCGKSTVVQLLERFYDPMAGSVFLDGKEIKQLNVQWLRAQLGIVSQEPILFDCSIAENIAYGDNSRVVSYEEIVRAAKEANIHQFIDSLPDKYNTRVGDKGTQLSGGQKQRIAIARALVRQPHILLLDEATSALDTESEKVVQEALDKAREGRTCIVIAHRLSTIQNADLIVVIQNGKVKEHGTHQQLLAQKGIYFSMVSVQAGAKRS
Source text: as §1

mouse Mdr1b = mouse Mdr1b (Mus musculus, UniProt P06795); assay: Gentest ABC transporter membrane ATPase assay; conditions: 0–300 μM, 30 min, 37°C
Sequence of mouse Mdr1b (P06795 whole entry): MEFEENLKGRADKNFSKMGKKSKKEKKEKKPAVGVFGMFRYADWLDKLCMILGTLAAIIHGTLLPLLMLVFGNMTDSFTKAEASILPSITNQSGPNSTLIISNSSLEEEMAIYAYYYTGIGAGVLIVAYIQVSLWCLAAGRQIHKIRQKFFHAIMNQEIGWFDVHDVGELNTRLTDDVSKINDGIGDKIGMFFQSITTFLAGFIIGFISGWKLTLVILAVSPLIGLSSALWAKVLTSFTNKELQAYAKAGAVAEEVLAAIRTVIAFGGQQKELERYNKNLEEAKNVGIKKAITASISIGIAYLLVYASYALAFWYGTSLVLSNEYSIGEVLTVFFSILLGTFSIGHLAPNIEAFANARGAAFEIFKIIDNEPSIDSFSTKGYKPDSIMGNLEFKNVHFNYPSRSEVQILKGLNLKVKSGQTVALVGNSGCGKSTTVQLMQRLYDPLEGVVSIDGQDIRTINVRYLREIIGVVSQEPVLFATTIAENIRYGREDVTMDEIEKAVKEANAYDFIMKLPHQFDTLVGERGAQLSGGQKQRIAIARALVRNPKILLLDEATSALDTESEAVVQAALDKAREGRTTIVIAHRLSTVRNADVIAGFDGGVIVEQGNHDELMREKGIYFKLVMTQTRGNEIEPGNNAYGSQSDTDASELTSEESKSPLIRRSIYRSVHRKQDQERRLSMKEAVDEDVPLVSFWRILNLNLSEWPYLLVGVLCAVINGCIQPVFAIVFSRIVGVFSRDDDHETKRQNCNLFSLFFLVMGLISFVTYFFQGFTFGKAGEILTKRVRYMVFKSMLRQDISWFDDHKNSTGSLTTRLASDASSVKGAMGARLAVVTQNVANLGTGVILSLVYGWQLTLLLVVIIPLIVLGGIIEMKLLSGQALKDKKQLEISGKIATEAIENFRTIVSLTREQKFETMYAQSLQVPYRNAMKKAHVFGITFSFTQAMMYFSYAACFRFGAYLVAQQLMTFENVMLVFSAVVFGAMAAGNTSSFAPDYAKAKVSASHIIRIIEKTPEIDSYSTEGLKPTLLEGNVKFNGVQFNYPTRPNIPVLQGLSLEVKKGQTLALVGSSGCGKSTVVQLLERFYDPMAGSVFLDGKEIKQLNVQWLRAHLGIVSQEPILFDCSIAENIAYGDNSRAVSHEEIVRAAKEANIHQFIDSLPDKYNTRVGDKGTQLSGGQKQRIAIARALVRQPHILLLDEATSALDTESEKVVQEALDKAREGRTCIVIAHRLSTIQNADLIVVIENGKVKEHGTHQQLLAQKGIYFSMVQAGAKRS
Source text: as §1

[4] = test system: P-gp (Mdr1a/1b) in mouse intestinal segments; assay: Ussing chamber intestinal permeability, ileal segments Mdr1a/1b (+/+) vs (−/−); conditions: for Mdr1a/1b (−/−) Permeability coefficient: P-gp knockout intestinal segments; for Mdr1a/1b (−/−) Permeability coefficient / Mdr1a/1b (+/+) Permeability coefficient: mucosal to serosal, 50 μM, 180 min; for Mdr1a/1b (+/+) Permeability coefficient: wild-type intestinal segments
Procedure: (§2) The bathing fluid for both mucosal and serosal surfaces (3 mL volume in each chamber) comprised oxygenated Krebs-Henseleit buffer maintained at 37°C (heating block) under stirred conditions (gas flow manifold). […] Any intestinal segments presenting an initial TEER of lower than 80 Ω.cm^2 were discarded prior to the experiment, likewise any segments whose TEER decreased by more than 10% over the course of the experiment were excluded.
(§3) Thereafter permeability coefficients were determined according to Eq. 4:4 ρ=dM/dt/A^∗C0

[5] = test system: P-gp (Mdr1a/1b) in mouse intestinal segments
Procedure: as §2, §3

P-gp = test system: P-gp; parameters: method as in PMID 23670704; conditions: IPRL and IPML models; cited from earlier work

Structure (SMILES) | Vmax (mouse Bcrp) [µM/min] | LogK^IAM [2] | MLV Partitioning [3] | Vmax (human MDR1) [µM/min] | Km (mouse Mdr1a) [µM] | Vmax (mouse Mdr1a) [µM/min] | Km (mouse Mdr1b) [µM] | Vmax (mouse Mdr1b) [µM/min] | Mdr1a/1b (−/−) Permeability coefficient [4] | Mdr1a/1b (+/+) Permeability coefficient [4] | Mdr1a/1b (+/+) ‘F’ estimate by model fit [95% CI) ([1]; male, mouse, 50 μM) | Mdr1a/1b (-/-) ‘F’ estimate by model fit [95% CI) ([1]; male, mouse, 50 μM) | also measured
COc1cc2c(c(OC)c1OC)-c1ccc(OC)c(=O)cc1[C@@H](NC(C)=O)CC2 [Colchicine, colchicine] | 0 | 1.30 | 0.86 | 16.6 | 9.1 | 22.7 | 7.7 | 28.4 | 14.95 ± 3.18 cm/s (x10^−6) | 6.93 ± 3.15 cm/s (x10^−6) |  |  | Ratio AUCs (-/-) : (+/+) ([1]; IPML KO:WT): 1.43; Group (impact of Mdr1a/1b knockout on IPML absorption) ([1]; categorisation from IPML outcomes): GROUP B; Mdr1a/1b (-/-) AUC(0-30) ([1]; knockout IPML, % deposited dose absorbed vs time in perfusate): 571 %.min; Mdr1a/1b (-/-) % Deposited Dose absorbed ([1]; knockout IPML, within 30 minutes): 25.4%; Mdr1a/1b (+/+) ‘F’ estimate by model fit [95% CI) ([1]; male, mouse): 16.6 [14.7 to 18.4]; Mdr1a/1b (-/-) ‘F’ estimate by model fit [95% CI) ([1]; male, mouse): 23.3 [20.9 to 25.7]; Mdr1a/1b (+/+) AUC(0-30) ([1]; wild-type IPML, % deposited dose absorbed vs time in perfusate): 398 %.min; Mdr1a/1b (+/+) % Deposited Dose absorbed ([1]; wild-type IPML, within 30 minutes): 17.7%; Km at 30 min (human MDR1 (P-gp)): 15.4 µM; Ratio Permeability (−/−): (+/+) ([4]; intestinal Papp KO:WT): 2.16
CC(C)(C)NCC(O)c1ccc(O)c(CO)c1 (centres unmarked) [Salbutamol, salbutamol] | 0 | 1.47 | 0.88 | 45.6 |  | 52.3 |  | 49.1 |  | 10.6 ± 2.30 cm/s (x10^−6) | 24.9 [21.8 to 28.1] | 30.2 [28.2 to 32.2] | Group (impact of Mdr1a/1b knockout on IPML absorption) [1]: GROUP B; Mdr1a/1b (−/−) Permeability coefficient [5]: 14.90 ± 2.16 cm/s (x10^−6)
CC(C)(C)NC(=O)[C@@H]1C[C@@H]2CCCC[C@@H]2CN1C[C@@H](O)[C@H](Cc1ccccc1)NC(=O)[C@H](CC(N)=O)NC(=O)c1ccc2ccccc2n1 [Saquinavir, saquinavir] | 0 | 1.24 | 0.45 | 41.3 | 31.7 | 39.5 | 32 | 47.1 | 15.73 ± 3.52 cm/s (x10^−6) | 1.56 ± 0.69 cm/s (x10^−6) | 25.5 [11.4 to 39.6] | 29.1 [19.5 to 38.6] | Mdr1a/1b (+/+) % Deposited Dose absorbed ([1]; male, mouse, 30 min, 50 μM): 20.0%; Mdr1a/1b (-/-) % Deposited Dose absorbed ([1]; male, mouse, 30 min, 50 μM): 20.0%; effect of P-gp inhibition (GF120918) upon pulmonary absorption (P-gp): unaffected; Km at 30 min (human MDR1 (P-gp); membranes displaying human MDR1 (Gentest ATPase assay)): 24.9 µM
